The source made the active and inactive calls.
Assays:
Format in all cases: functional
[1] = molecular target: Delta-type opioid receptor (Homo sapiens, UniProt P41143); test: Counterscreen for agonists of heterodimerization of the mu 1 (OPRM1) and delta 1 (OPRD1) opioid receptors: Luminescence-based cell-based high throughput dose response assay to identify agonists of OPRD1 homodimerization. [Related pubchem assays (depositor defined):AID504326, AID504355, AID504692, AID504904, AID504905]
Mu-type opioid receptor = Mu-type opioid receptor (Homo sapiens, UniProt P35372); test: Counterscreen for agonists of heterodimerization of the mu 1 (OPRM1) and delta 1 (OPRD1) opioid receptors: Luminescence-based cell-based high throughput dose response assay to identify agonists of OPRM1 homodimerization.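 Note: U2OS cells expressing OPRM1 and beta-arrestin as split beta-galactosidase partners.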
[2] = molecular target: 5-hydroxytryptamine receptor 5A (Homo sapiens, UniProt P47898); test: Counterscreen for agonists of OPRM1-OPRD1 heterodimerization: luminescence-based cell-based high throughput dose response assay to identify agonists of 5-hydroxytryptamine (serotonin) 5A receptor (HTR5A). [Related pubchem assays (depositor defined):AID504326, AID504355, AID504692, AID504904, AID504905]
[3] = molecular target: E3 ubiquitin-protein ligase Mdm2 (Homo sapiens, UniProt Q00987); test: enhancers of MDM2-luciferase reporter signal, concentration-effect titration, project on inhibitors of MDM2 ubiquitin ligase, cellular assay, luminescent readout, 384-well plate format (AID 1394);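 note: MDM2 E3 inhibitors raise luminescence so EC50 is for signal enhancement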
[4] = molecular target: Induced myeloid leukemia cell differentiation protein Mcl-1 (Homo sapiens, UniProt Q07820)
Vero = Vero cell cytotoxicity, cytotoxicity control for flavivirus capping enzyme inhibitors (AID 588742); conditions: Chlorocebus sabaeus
Beta-arrestin-1 = Beta-arrestin-1 (Homo sapiens, UniProt P49407); test: inhibitors of arrestin peptide binding to AP2, dose response, biochemical, cherry pick 1, beta2-adaptin appendage, flow cytometry (AID 588783)
Genome polyprotein = Genome polyprotein (dengue virus type 2, UniProt P29990); test: Dengue-2 NS5 methyltransferase inhibitors, primary screen, biochemical, confirmation dose response (AID 588689)
[5] = HeLa cell cytotoxicity, dose response, cytotoxicity control for MgcRacGAP inhibitor project (AID 624300)
[6] = THP-1 cell cytotoxicity, dose response, cytotoxicity control for Vif-APOBEC3G degradation inhibitor project, THP-1 cells (AID 1117359); conditions: Human immunodeficiency virus 1, THP-1

Sequence of 5-hydroxytryptamine receptor 5A (P47898 whole entry): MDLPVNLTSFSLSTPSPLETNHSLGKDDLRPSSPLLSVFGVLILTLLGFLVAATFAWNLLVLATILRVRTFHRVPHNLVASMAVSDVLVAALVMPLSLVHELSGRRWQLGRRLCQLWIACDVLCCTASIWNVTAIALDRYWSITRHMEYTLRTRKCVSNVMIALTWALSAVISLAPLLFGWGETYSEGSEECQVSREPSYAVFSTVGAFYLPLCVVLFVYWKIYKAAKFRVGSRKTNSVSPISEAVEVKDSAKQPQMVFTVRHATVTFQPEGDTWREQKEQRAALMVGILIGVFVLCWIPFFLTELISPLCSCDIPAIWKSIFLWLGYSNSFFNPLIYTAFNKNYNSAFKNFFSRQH
Sequence of Mu-type opioid receptor (P35372 whole entry): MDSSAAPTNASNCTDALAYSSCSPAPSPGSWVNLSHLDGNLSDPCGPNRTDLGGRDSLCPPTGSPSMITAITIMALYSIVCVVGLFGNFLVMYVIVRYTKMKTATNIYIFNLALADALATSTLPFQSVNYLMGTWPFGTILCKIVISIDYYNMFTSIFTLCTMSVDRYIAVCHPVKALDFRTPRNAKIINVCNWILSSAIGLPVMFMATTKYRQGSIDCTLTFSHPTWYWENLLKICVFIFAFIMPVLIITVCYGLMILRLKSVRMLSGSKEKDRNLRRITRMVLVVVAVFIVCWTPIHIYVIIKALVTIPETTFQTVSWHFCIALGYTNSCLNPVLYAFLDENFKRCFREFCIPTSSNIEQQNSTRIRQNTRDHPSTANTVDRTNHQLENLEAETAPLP
Sequence of Genome polyprotein (P29990 2492-3391 limits assumed): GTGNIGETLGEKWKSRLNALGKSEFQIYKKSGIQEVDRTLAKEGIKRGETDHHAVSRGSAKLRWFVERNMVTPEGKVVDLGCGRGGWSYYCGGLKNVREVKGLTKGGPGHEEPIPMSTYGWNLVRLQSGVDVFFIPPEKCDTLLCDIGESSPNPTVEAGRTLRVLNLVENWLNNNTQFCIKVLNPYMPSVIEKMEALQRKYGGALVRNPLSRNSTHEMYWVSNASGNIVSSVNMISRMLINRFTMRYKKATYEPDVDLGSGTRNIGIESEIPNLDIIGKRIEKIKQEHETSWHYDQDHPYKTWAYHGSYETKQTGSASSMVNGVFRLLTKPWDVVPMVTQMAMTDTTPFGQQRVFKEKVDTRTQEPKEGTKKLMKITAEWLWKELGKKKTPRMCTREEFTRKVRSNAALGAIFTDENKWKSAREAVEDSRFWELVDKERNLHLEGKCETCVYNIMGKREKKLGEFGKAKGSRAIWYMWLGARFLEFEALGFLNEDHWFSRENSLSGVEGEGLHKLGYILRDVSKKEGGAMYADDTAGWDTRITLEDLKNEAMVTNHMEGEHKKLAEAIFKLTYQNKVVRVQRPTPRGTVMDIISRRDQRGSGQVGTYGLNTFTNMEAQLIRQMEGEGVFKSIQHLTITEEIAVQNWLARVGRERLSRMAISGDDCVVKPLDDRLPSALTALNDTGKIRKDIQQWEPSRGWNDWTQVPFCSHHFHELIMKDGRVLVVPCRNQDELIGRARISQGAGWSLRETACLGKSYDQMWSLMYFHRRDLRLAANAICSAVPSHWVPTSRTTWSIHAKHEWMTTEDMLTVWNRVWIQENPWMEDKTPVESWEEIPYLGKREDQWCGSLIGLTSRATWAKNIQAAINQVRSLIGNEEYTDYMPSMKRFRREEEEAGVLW
Sequence of E3 ubiquitin-protein ligase Mdm2 (Q00987 whole entry): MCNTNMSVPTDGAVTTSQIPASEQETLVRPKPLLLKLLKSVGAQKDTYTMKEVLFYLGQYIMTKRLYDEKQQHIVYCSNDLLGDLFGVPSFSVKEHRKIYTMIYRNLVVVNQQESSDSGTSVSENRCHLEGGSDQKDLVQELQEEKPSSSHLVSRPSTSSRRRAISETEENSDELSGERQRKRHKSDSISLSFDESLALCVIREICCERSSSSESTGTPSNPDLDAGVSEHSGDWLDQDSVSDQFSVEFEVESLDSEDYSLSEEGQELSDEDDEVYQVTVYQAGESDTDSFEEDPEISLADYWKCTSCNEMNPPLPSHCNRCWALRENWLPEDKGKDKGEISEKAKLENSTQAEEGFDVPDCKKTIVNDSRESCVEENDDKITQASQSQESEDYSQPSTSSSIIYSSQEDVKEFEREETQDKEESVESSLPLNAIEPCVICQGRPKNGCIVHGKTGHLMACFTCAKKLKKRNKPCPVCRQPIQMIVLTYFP
Sequence of Beta-arrestin-1 (P49407 whole entry): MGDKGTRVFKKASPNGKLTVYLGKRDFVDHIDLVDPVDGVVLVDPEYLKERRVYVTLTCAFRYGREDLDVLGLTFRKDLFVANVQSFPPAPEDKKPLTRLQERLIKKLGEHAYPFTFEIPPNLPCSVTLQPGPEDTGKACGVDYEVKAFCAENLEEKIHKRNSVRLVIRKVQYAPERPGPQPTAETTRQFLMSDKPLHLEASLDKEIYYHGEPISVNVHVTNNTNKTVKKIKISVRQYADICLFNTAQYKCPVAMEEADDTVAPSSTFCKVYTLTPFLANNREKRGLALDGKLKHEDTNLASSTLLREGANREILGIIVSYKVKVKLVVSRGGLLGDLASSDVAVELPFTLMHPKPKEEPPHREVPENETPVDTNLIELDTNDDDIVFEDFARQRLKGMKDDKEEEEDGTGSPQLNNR
Sequence of Delta-type opioid receptor (P41143 whole entry): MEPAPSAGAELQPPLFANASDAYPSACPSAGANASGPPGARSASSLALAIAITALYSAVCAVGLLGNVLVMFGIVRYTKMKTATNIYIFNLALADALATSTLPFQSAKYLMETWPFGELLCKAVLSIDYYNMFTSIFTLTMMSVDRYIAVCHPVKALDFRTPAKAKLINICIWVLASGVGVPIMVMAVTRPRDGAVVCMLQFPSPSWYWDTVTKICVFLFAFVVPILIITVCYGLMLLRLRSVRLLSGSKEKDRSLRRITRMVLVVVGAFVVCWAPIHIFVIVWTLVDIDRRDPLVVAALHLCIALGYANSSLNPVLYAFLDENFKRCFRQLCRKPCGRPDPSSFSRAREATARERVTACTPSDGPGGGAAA
Sequence of Induced myeloid leukemia cell differentiation protein Mcl-1 (Q07820 whole entry): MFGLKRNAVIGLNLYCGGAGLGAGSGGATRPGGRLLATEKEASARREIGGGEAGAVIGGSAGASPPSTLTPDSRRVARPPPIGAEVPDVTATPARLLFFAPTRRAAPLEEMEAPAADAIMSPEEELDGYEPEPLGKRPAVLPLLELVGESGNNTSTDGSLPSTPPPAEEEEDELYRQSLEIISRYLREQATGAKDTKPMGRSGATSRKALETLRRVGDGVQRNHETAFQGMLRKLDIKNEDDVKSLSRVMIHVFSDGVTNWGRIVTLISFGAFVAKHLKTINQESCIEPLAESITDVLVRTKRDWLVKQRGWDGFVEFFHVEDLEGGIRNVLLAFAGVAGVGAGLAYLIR

Row | EC50 [1] | EC50 (Mu-type opioid receptor) | EC50 [2] | Compound | EC50 [3] | IC50 [4] | CC50 (Vero) | IC50 (Beta-arrestin-1) | IC50 (Genome polyprotein) | CC50 [5] | CC50 [6]
1 | > 92.5 µM (inactive) | > 92.5 µM (inactive) | > 92.5 µM (inactive) | Cc1c(CCOC(=O)c2ccccc2)sc[n+]1CC(=O)c1ccc(Br)cc1 | – | – | – | – | – | – | –
2 | – | – | – | Cc1cccc2c1c1ccc3c(c1n2C)C(=O)C=CC3=O | 1.03 µM (active) | 3.22 µM (active) | 34.7 µM (active) | 7.34 µM (active) | 33.5 µM (active) | 100 µM (active) | 14.1 µM (active)

Source: ChEMBL document CHEMBL1201862, “PubChem BioAssay data set” (2004)
